We go through seven compounds from patent EP4700022A1, “CYP11A1 INHIBITORS AND USE THEREOF” (Xizang Haisco Pharmaceutical Co., Ltd., priority 2023, dated 2024).

Molecules are shown by their SMILES.

Data set [1] relates to testosterone level in NCI-H295R cells. The data set is described as follows: cells. Format: cell-based. The settings on record: Homo sapiens, 72 h; for inhibition at 0.1 µM: read-out: Testosterone level in H295R (Elisa) inh.% 100 nM; for inhibition at 1 µM: read-out: Testosterone level in H295R (Elisa) inh.% 1000 nM; for IC50: read-out: IC50/nM. How it is done:
1. The purpose of the experimental study was intended to detect the testosterone level in the NCI-H295R cells by adopting the Enzyme linked immunosorbent assay (ELISA), so as to evaluate the inhibitory effects of the compounds on the testosterone level in the NCI-H295R cells. The H295R cells were purchased from ATCC, the cell complete medium contained DMEM: F12+ 10% FBS +0.00625 mg/ml insulin +0.00625 mg/ml transferrin+6.25 ng/ml selenium +1.25 mg/ml BSA+0.00535 mg/ml linoleic acid, and the cells were cultured in a 37°C, 5% CO2 incubator. The cells in the exponential growth phase were collected, and cultured in a cytokine-free medium (phenol red 1640-free +1% PS+10% css FBS+1.25 mg/ml BSA +0.00625 mg/ml insulin + 0.00625 mg/ml transferrin+6.25 ng/ml selenium+0.00535 mg/ml linoleic acid) for 3 days. The cells in the exponential growth phase were collected on the third day. The cell suspension was adjusted with a cytokine-free medium to a corresponding concentration and plated at 60000 cells/well, with the volume being 90 µL/well. Subsequently, 10 µL of the compounds at different concentrations was added and the plate was incubated in a CO2 incubator for 3 days. After the incubation was completed, according to the operation instructions for testosterone Elisa kit (Beyotime, PT872), 50 µL of the cell culture supernatant was collected from each well and centrifuged at 500 g for 5 min at room temperature and then the resulting supernatant was collected. The samples were added to the corresponding wells at 25 µl/well, and then formulated horseradish peroxidase labeled testosterone was added at 75 µl/well. The mixture was fully mixed for 10 seconds. The reaction wells were sealed with a plate-sealing film (white) and the mixture was incubated at room temperature in the dark for 120 min. The plate was washed 3 times with a volume of 300 µl per well, and then placed onto thick absorbent paper and dried. Chromogenic reagent TMB solution was added at 100 µl/well. The reaction wells were sealed with a plate-sealing film (white) and the mixture was incubated at room temperature in the dark for 15-20 min. Subsequently, a termination solution was added at 50 µl/well, and after the mixture was fully mixed, the absorbance value OD450 was immediately measured. The absorbance readings were processed using Graphpad Prim 8.0 software and S-shaped concentration curves were plotted and the IC50 values were calculated using a four-parameter non-linear regression model. The results were processed according to formula (1), the inhibition rate of the compound at different concentrations was calculated, and the IC50 value of the compound with an inhibition rate of 50% was calculated using Graphpad Prim 8.0 software, wherein RLU compound was the readout of the treated group, and RLU control was the average value of the solvent control group. Inhibition rate% = 100-RLUcompound /RLUcontrol × 100 [formula] Table 1. Inhibitory activity on testosterone level in NCI-H295R cells

A short description of data set [2]: Pharmacokinetic test in mice. Format: in vivo. The settings on record: mouse, male ICR mice, plasma; for Vd: read-out: Vdss. How it is done:
4.1. Experimental animals: Male ICR mice, 20-25 g, 6 mice/compound, purchased from Chengdu Dossy Experimental Animals Co., Ltd.
4.2 Experimental design: on the day of the experiment, the ICR mice were randomly grouped according to their body weights. […] Table 5. Administration information
vehicle for intravenous administration: 5% DMA+5% HS-15+90% NS; vehicle for intragastric administration: 0.5% MC
Before and after administration, 0.06 mL of blood was taken from the orbit under isoflurane anesthesia and placed in an EDTAK2 centrifuge tube. The tube was centrifuged at 5000 rpm at 4°C for 10 min, and plasma was collected. […] Before analysis and detection, all samples were stored at -80°C, and the samples were quantitatively analyzed by LC-MS/MS. Table 6. Pharmacokinetic parameters of test compounds in plasma of mice

Data set [3] concerns pregnenolone level in NCI-H295R cells. As to the kind of experiment: cells. Format: cell-based. Conditions: Homo sapiens, 72 h; for IC50: read-out: Pregnenolone level in H295R (Elisa) IC50 nM. Here is the method: 2. The purpose of the experimental study was intended to detect the pregnenolone level in the NCI-H295R cells by adopting the Enzyme linked immunosorbent assay (ELISA), so as to evaluate the inhibitory effects of the compounds on the pregnenolone level in the NCI-H295R cells.
The H295R cells were purchased from ATCC (CRL-2128), the cell complete medium contained DMEM: F12+ 10% FBS +0.00625 mg/ml insulin+0.00625 mg/mL transferrin+6.25 ng/mL selenium+1.25 mg/mL BSA+0.00535 mg/mL linoleic acid, and the cells were cultured in a 37°C, 5% CO2 incubator. The cells in the exponential growth phase were collected, and cultured in a cytokine-free medium (phenol red 1640-free +1% PS+10% css FBS+1.25 mg/mL BSA +0.00625 mg/mL insulin+0.00625 mg/mL transferrin+6.25 ng/mL selenium+0.00535 mg/mL linoleic acid) for 3 days. The cells in the exponential growth phase were collected on the third day. The cell suspension was adjusted with a cytokine-free medium to a corresponding concentration and plated at 60000 cells/well, with the volume being 90 µL/well. Subsequently, 10 µL of the compounds at different concentrations was added and the plate was incubated in a CO2 incubator for 3 days. After the incubation was completed, the cell culture supernatant was collected and centrifuged at 2°C-8°C at 800×g for 10 min. The resulting supernatant was collected. Determination was carried out according to the operation instructions for pregnenolone Elisa kit (Antibodies-A73791), and the OD450 signal was read.
2.1 Standard curve plotting. The standard concentration was taken as the abscissa and the OD450 value as the ordinate, the coordinate points of various standards were connected with a smooth line and a curve was fitted according to the four parameter logistic (4-PL) method.
2.2 Sample quantification: The corresponding concentration (CONC) of testosterone/pregnenolone in the sample was calculated using the absorbance value of the sample and the standard curve. According to formula (2), the inhibition rate of the compound at various concentrations was calculated, and S-shaped concentration curves were plotted and the IC50 values (i.e., concentration of the compound at which the inhibition rate was 50%) were calculated using a three parameter non-linear regression model in Graphpad Prim 8.0 software. CONC cpd was the concentration of the treated group, and CONC ctrl was the average concentration value of the solvent control group. Inhibition rate% = 100%-CONCepd /CONCctrl × 100% [formula]

Data set [4] in a line: Pharmacokinetic test in beagle dogs. It counts as in vivo. The settings on record: dog, male beagle dogs, plasma. Here is the method:
Experimental animals: male beagle dogs, about 8-11 kg, 6 beagle dogs/compound, purchased from Beijing Marshall Biotechnology Co., Ltd.
Experimental method: on the day of the experiment, the beagle dogs were randomly grouped according to their body weights. The animals were fasted with water available for 12-14 h one day before the administration, and were fed 4 h after the administration. Administration was performed as per Table 7.
Test compounds: example compounds and control compounds. Table 7. Administration information
Before and after the administration, 1 ml of blood was taken from the jugular veins or limb veins, and placed in an EDTAK2 centrifuge tube. Centrifugation was performed at 5000 rpm at 4°C for 10 min, and plasma was collected. The blood collection time points for both the intravenous administration group and the intragastric administration group were: 0, 5 min, 15 min, 30 min, 1 h, 2 h, 4 h, 6 h, 8 h, 10 h, 12 h, 24 h, 48 h, and 72 h. Before analysis and detection, all samples were stored at -80°C. The samples were analyzed quantitatively by LC-MS/MS. Table 8. Pharmacokinetic parameters of test compounds in plasma of beagle dogs

Data set [5] in a line: Pharmacokinetic test in rats. The settings on record: rat, male SD rats, plasma; for Vd: read-out: Vdss. Format: in vivo. Here is the method:
3.1 Experimental animals: Male SD rats (about 220 g, 6-8 weeks old, 6 rats/compound), purchased from Chengdu Dossy Experimental Animals Co., Ltd.
3.2 Experimental design: On the day of the experiment, the SD rats were randomly grouped by body weight. […] Table 3. Administration information
Before and after the administration, 0.1 ml of blood was taken from the orbit of the animals under isoflurane anesthesia and placed in an EDTAK2 centrifuge tube. The blood was centrifuged at 5000 rpm and 4°C for 10 min to collect plasma. […] Before analysis and detection, all samples were stored at -80°C. Table 4. Pharmacokinetic parameters of test compounds in plasma of rats

Where [6] appears, read: po, intragastric administration (10 mg/kg).
The mark [7] stands for this setting: intravenous administration (2.5 mg/kg).
[8] abbreviates: po, intragastric administration (3 mg/kg).
The mark [9] stands for this setting: intravenous administration (1 mg/kg).

On to `CS(=O)(=O)N1CC(OC(=O)N2CCC3(CC2)CC(Oc2cc(CN4Cc5ccc(C(F)(F)F)cc5C4)ccn2)C3)C1` [Compound 38], for which, in data set [1], the inhibition at 0.1 µM was 68.2% and the inhibition at 1 µM is 81%. In data set [2] (setting [6]), this compound showed an area under the curve AUC(0-t) of 13500 ng·h/mL and a half-life of 3.65 h. In data set [2] (setting [7]), the AUC(0-t) was found to be 4360 ng·h/mL, the clearance was determined as 9.45 mL/min/kg, the half-life is 4.11 h and the Vd stood at 2.78 L/kg.
Consider `CS(=O)(=O)N1CCC(CCOc2cc(CN3Cc4ccc(C5CC5)cc4C3)ccn2)CC1` [Compound 50], for which, in data set [1], the IC50 worked out at 130 nM, the inhibition at 0.1 µM was determined as 51.7% and the inhibition at 1 µM is 89.4%. In data set [2] (setting [6]), this compound gave an AUC(0-t) of 7780 ng·h/mL and a half-life of 2.73 h. Besides, in data set [2] (setting [7]), the AUC(0-t) came to 2360 ng·h/mL, the clearance worked out at 17.3 mL/min/kg, the half-life is 3 h and the Vd turned out to be 3.37 L/kg.
On to `[2H]C([2H])([2H])C(=O)N[C@H]1CC[C@H](c2cc3oc(CN4Cc5ccc(C(F)(F)F)cc5C4)cc(=O)c3o2)CC1` [Compound 58], for which the IC50 was 160 nM in data set [3] and 57 nM in data set [1]. The AUC(0-t) amounted to 24800 ng·h/mL in data set [4] (setting [8]), 14000 ng·h/mL in data set [4] (setting [9]), 9460 ng·h/mL in data set [2] (setting [6]) and 2960 ng·h/mL in data set [2] (setting [7]). Moreover, the half-life in data set [4] (setting [8]) was 6.79 h; in data set [4] (setting [9]) it was 10.2 h; in data set [2] (setting [6]), 2.08 h; in data set [2] (setting [7]), 2.77 h. The results for the clearance in data set [4] (setting [9]) and in data set [2] (setting [7]) were 1.24 mL/min/kg and 14.2 mL/min/kg, respectively. Further, the Vd was determined as 0.87 L/kg in data set [4] (intravenous administration (1 mg/kg), read-out: Vdss) and 1.34 L/kg in data set [2] (setting [7]).
Regarding `[2H]C([2H])([2H])C(=O)N[C@H]1CC[C@H](CCOc2cc(CN3Cc4ccc(C(F)(F)F)cc4C3)ccn2)CC1` [Compound 62], in data set [5] (setting [6]), the AUC(0-t) was 41500 ng·h/mL and the half-life was 4.13 h. Further, in data set [5] (setting [7]), the AUC(0-t) worked out at 10800 ng·h/mL, the clearance stood at 3.97 mL/min/kg, the half-life was 3.81 h and the Vd was found to be 1.11 L/kg. Further, in data set [3], the IC50 is 142 nM. For the same compound, in data set [1], the IC50 is 151 nM.
As to `[2H]C([2H])([2H])n1cc(C(=O)N[C@H]2CC[C@H](CCOc3cc(CN4Cc5ccc(C(F)(F)F)cc5C4)ccn3)CC2)cn1` [Compound 63], the IC50 in data set [3] was found to be 272 nM. In data set [1], the IC50 worked out at 92 nM, the inhibition at 0.1 µM worked out at 64.4% and the inhibition at 1 µM stood at 76.4%. In addition, in data set [2] (setting [6]), the area under the curve AUC(0-t) is 20800 ng·h/mL and the half-life is 6.62 h. Moreover, in data set [2] (setting [7]), the AUC(0-t) is 5530 ng·h/mL, the clearance was found to be 7.37 mL/min/kg, the half-life is 4.7 h and the Vd is 2.36 L/kg.
Turning to `O=C(N[C@H]1CC[C@H](CCOc2cc(CN3Cc4ccc(C(F)(F)F)cc4C3)ccn2)CC1)C1CC1` [Compound 65], in data set [5] (setting [6]), the AUC(0-t) turned out to be 7550 ng·h/mL and the half-life is 6.58 h. In addition, in data set [5] (setting [7]), the AUC(0-t) is 2150 ng·h/mL, the clearance turned out to be 17.4 mL/min/kg, the half-life was 8.25 h and the Vd stood at 8.8 L/kg. In addition, the IC50 in data set [3] stood at 319 nM. Besides, in data set [1], the IC50 is 168 nM, the inhibition at 0.1 µM turned out to be 71% and the inhibition at 1 µM is 75%.
With `O=C(N[C@H]1CC[C@H](CCOc2cc(CN3Cc4ccc(C(F)(F)F)cc4C3)ccn2)CC1)[C@@H]1CC1(F)F` [Compound 71], the inhibition at 0.1 µM came to 43.9% in data set [3] (read-out: Pregnenolone level in H295R (Elisa) inh.% 100 nM) and 74.9% in data set [1]. Further, the inhibition at 1 µM in data set [3] (read-out: Pregnenolone level in H295R (Elisa) inh.% 1000 nM) turned out to be 57.5%; in data set [1] it was 86.9%.
